Values quoted from earlier work, collected in paper PMC6472032 (Marine Drugs, 2019).

Details: in vivo; cited from earlier work

Question: With desmopressin as the substance, how does the mean terminal half-life read?
Answer: 3.7 h
